# Experiments:
# [1] = Stability in SGF with pepsin; assay type: physicochemical
# [2] = Stability in Mouse Plasma; assay type: in vitro ADME; conditions: for half-life: mouse, plasma
# [3] = Stability in SGF without pepsin; assay type: physicochemical
# [4] = Table 8, if calculated T½ < 0, T½ reported as 9999 min
structure (smiles),measurement,setting,value
CCCCC(=O)Oc1cccc2ccn(CCN(C)C)c12 [VLS-03-1],Peak Area of MRM: 205.0/159.8 (analyte VLS-03-1 Parent),Stability in PBS pH 6.5; 0 min,5.04E+04
same,Peak Area of MRM: 205.0/159.8 (analyte VLS-03-1 Parent),Stability in PBS pH 6.5; 30 min,4.71E+04
same,Peak Area of MRM: 205.0/159.8 (analyte VLS-03-1 Parent),Stability in PBS pH 6.5; 60 min,4.71E+04
same,Peak Area of MRM: 205.0/159.8 (analyte VLS-03-1 Parent),Stability in PBS pH 6.5; 120 min,4.86E+04
same,Peak Area of MRM: 205.0/159.8 (analyte VLS-03-1 Parent),Stability in PBS pH 6.5; 240 min,4.75E+04
same,Remaining Percentage,"Stability in PBS pH 6.5; Table 8, 0 min",100.00%
same,Remaining Percentage,"Stability in PBS pH 6.5; Table 8, 30 min",96.32%
same,Remaining Percentage,"Stability in PBS pH 6.5; Table 8, 60 min",99.71%
same,Remaining Percentage,"Stability in PBS pH 6.5; Table 8, 120 min",100.03%
same,Remaining Percentage,"Stability in PBS pH 6.5; Table 8, 240 min",101.35%
same,T½,Stability in PBS pH 6.5; [4],166.65 h
same,Peak Area of MRM: 205.0/159.8 (analyte VLS-03-1 Parent),Stability in PBS pH 6.5; VLS-03-1 standard,4.49E+04
same,Peak Area of MRM: 205.0/159.8 (analyte VLS-03-1 Parent),[1]; 0 min,5.72E+04
same,Peak Area of MRM: 205.0/159.8 (analyte VLS-03-1 Parent),[1]; 30 min,5.37E+04
same,Peak Area of MRM: 205.0/159.8 (analyte VLS-03-1 Parent),[1]; 60 min,5.01E+04
same,Peak Area of MRM: 205.0/159.8 (analyte VLS-03-1 Parent),[1]; 120 min,5.48E+04
same,Peak Area of MRM: 205.0/159.8 (analyte VLS-03-1 Parent),[1]; 240 min,5.27E+04
same,Remaining Percentage,"[1]; Table 8, 0 min",100.00%
same,Remaining Percentage,"[1]; Table 8, 30 min",101.74%
same,Remaining Percentage,"[1]; Table 8, 60 min",90.49%
same,Remaining Percentage,"[1]; Table 8, 120 min",102.16%
same,Remaining Percentage,"[1]; Table 8, 240 min",96.47%
same,half-life,[1]; [4],8950 min
same,Peak Area of MRM: 205.0/159.8 (analyte VLS-03-1 Parent),[1]; VLS-03-1 standard,4.22E+04
same,Remaining Percentage,"[2]; Table 9, 0 min",100.00%
same,Remaining Percentage,"[2]; Table 9, 15 min",0.00%
same,Remaining Percentage,"[2]; Table 9, 30 min",0.00%
same,Remaining Percentage,"[2]; Table 9, 60 min",0.00%
same,Remaining Percentage,"[2]; Table 9, 120 min",0.00%
same,Peak Area of MRM: 205.0/159.8 (analyte VLS-03-1 Parent),[3]; 0 min,4.53E+04
same,Peak Area of MRM: 205.0/159.8 (analyte VLS-03-1 Parent),[3]; 30 min,4.75E+04
same,Peak Area of MRM: 205.0/159.8 (analyte VLS-03-1 Parent),[3]; 60 min,4.51E+04
same,Peak Area of MRM: 205.0/159.8 (analyte VLS-03-1 Parent),[3]; 120 min,4.66E+04
same,Peak Area of MRM: 205.0/159.8 (analyte VLS-03-1 Parent),[3]; 240 min,4.57E+04
same,Remaining Percentage,"[3]; Table 8, 0 min",100.00%
same,Remaining Percentage,"[3]; Table 8, 30 min",106.25%
same,Remaining Percentage,"[3]; Table 8, 60 min",99.72%
same,Remaining Percentage,"[3]; Table 8, 120 min",104.22%
same,Remaining Percentage,"[3]; Table 8, 240 min",103.22%
same,T½,[3]; [4],166.65 h
same,Peak Area of MRM: 205.0/159.8 (analyte VLS-03-1 Parent),[3]; VLS-03-1 standard,3.75E+04
"CC(C)[N+](C)(CCOC(=O)C1c2ccccc2Oc2ccccc21)C(C)C [Propantheline, reference compound]",Remaining Percentage,"[2]; Table 9, 0 min",100.00%
same,Remaining Percentage,"[2]; Table 9, 15 min",85.78%
same,Remaining Percentage,"[2]; Table 9, 30 min",70.74%
same,Remaining Percentage,"[2]; Table 9, 60 min",29.46%
same,Remaining Percentage,"[2]; Table 9, 120 min",8.74%
same,Remaining Percentage,"[2]; Table 11, 0 min",100.00%
same,Remaining Percentage,"[2]; Table 11, 15 min",80.81%
same,Remaining Percentage,"[2]; Table 11, 30 min",64.04%
same,Remaining Percentage,"[2]; Table 11, 60 min",34.86%
same,Remaining Percentage,"[2]; Table 11, 120 min",9.05%
same,half-life,"[2]; Table 9, read-out: T½",32.6 min
same,half-life,"[2]; Table 11, read-out: T½",34.1 min
"CC[C@H]1OC(=O)[C@H](C)[C@@H](O[C@H]2C[C@@](C)(OC)[C@@H](O)[C@H](C)O2)[C@H](C)[C@@H](O[C@@H]2O[C@H](C)C[C@H](N(C)C)[C@H]2O)[C@](C)(O)C[C@@H](C)C(=O)[C@H](C)[C@@H](O)[C@]1(C)O [Erythromycin, reference compound]",Remaining Percentage,"[1]; Table 8, 0 min",100.00%
same,Remaining Percentage,"[1]; Table 8, 30 min",56.55%
same,Remaining Percentage,"[1]; Table 8, 60 min",37.33%
same,Remaining Percentage,"[1]; Table 8, 120 min",14.06%
same,Remaining Percentage,"[1]; Table 8, 240 min",2.14%
same,half-life,[1]; [4],43.6 min
same,Remaining Percentage,"[1]; Table 10, 0 min",100.00%
same,Remaining Percentage,"[1]; Table 10, 30 min",56.55%
same,Remaining Percentage,"[1]; Table 10, 60 min",34.88%
same,Remaining Percentage,"[1]; Table 10, 120 min",11.22%
same,Remaining Percentage,"[1]; Table 10, 240 min",1.60%
same,half-life,"[1]; Table 10, read-out: T½",40.3 min
same,Remaining Percentage,"[3]; Table 8, 0 min",100.00%
same,Remaining Percentage,"[3]; Table 8, 30 min",52.67%
same,Remaining Percentage,"[3]; Table 8, 60 min",28.46%
same,Remaining Percentage,"[3]; Table 8, 120 min",8.27%
same,Remaining Percentage,"[3]; Table 8, 240 min",1.47%
same,half-life,[3]; [4],39.5 min
same,Remaining Percentage,"[3]; Table 10, 0 min",100.00%
same,Remaining Percentage,"[3]; Table 10, 30 min",59.45%
same,Remaining Percentage,"[3]; Table 10, 60 min",33.60%
same,Remaining Percentage,"[3]; Table 10, 120 min",10.27%
same,Remaining Percentage,"[3]; Table 10, 240 min",1.20%
same,half-life,"[3]; Table 10, read-out: T½",37.4 min
